Assay results published in PubChem BioAssay AID328 (DTP/NCI, 2004).
“And” between values parts separate entries of the source, which are not always exact repeats. Equal values may be shown once. Inconclusive results and toxic doses are left out.

Test system: BDF1 mice, P388 leukemia ip, median survival T/C
Assay: NCI In Vivo Anticancer Drug Screen. Data for tumor model P388 Leukemia (intraperitoneal) in B6D2F1 (BDF1) mice
Details: endpoint: median survival time, higher = longer survival
Summary of the method: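 Transplantable tumour in mice; compound vs vehicle dosing; survival scored; ratio of treated to control reported.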

[1] = dose: 25.0 mg/kg/injection, schedule: Q01DX009 (ip), vehicle: saline with Tween-80
[2] = dose: 50.0 mg/kg/injection, schedule: Q01DX009 (ip), vehicle: saline with Tween-80
[3] = dose: 100.0 mg/kg/injection, schedule: Q01DX009 (ip), vehicle: saline with Tween-80
[4] = dose: 100.0 mg/kg/injection, schedule: Q04DX003 (ip), vehicle: saline with Tween-80
[5] = dose: 50.0 mg/kg/injection, schedule: Q04DX003 (ip), vehicle: saline
[6] = dose: 100.0 mg/kg/injection, schedule: Q04DX003 (ip), vehicle: saline
[7] = dose: 400.0 mg/kg/injection, schedule: Q04DX003 (ip), vehicle: saline with Tween-80
[8] = dose: 50.0 mg/kg/injection, schedule: Q04DX003 (ip), vehicle: saline with Tween-80

SMILES: CN(N=O)C(=O)N[C@@H](C=O)[C@@H](O)[C@H](O)[C@H](O)CO
- T/C (dose: 17.0 mg/kg/injection, schedule: Q01DX009 (ip), vehicle: water): 118 % of control
- T/C (dose: 39.0 mg/kg/injection, schedule: Q01DX009 (ip), vehicle: water): 161 % of control
- T/C (dose: 40.0 mg/kg/injection, schedule: Q01DX010 (ip), vehicle: other): 154 % of control
- T/C (dose: 50.0 mg/kg/injection, schedule: Q01DX009 (ip), vehicle: other): 171 % of control
- T/C (dose: 58.0 mg/kg/injection, schedule: Q01DX009 (ip), vehicle: water): 157 % of control and 181 % of control
- T/C (dose: 80.0 mg/kg/injection, schedule: Q01DX010 (ip), vehicle: other): 118 % of control
- T/C (dose: 87.0 mg/kg/injection, schedule: Q01DX009 (ip), vehicle: water): 154 % of control and 170 % of control
- T/C (dose: 100.0 mg/kg/injection, schedule: Q04DX002 (ip), vehicle: saline): 109 % of control
- T/C (dose: 130.0 mg/kg/injection, schedule: Q01DX009 (ip), vehicle: water): 89 % of control
- T/C (dose: 200.0 mg/kg/injection, schedule: Q04DX002 (ip), vehicle: saline): 100 % of control
- T/C (dose: 400.0 mg/kg/injection, schedule: Q04DX002 (ip), vehicle: saline): 109 % of control

SMILES: CCC/C=C/C=C/C1CC(O)C(O)C(=O)C1C=O (stereo not drawn)
- T/C (dose: 12.5 mg/kg/injection, schedule: Q01DX009 (ip), vehicle: saline with Tween-80): 108 % of control
- T/C [1]: 100 % of control
- T/C [2]: 101 % of control

SMILES: COCCOCCN1CCN(CCCN2c3ccccc3Sc3ccc(C(F)(F)F)cc32)CC1
- T/C (dose: 12.5 mg/kg/injection, schedule: Q04DX003 (ip), vehicle: saline): 112 % of control
- T/C (dose: 25.0 mg/kg/injection, schedule: Q04DX003 (ip), vehicle: saline): 108 % of control

SMILES: CNC(=N)c1ccc(NC(=N)c2ccc(NC(=N)c3ccc(NC(=O)Nc4ccc(C(=N)Nc5ccc(C(=N)Nc6ccc(C(=N)NC)cc6)cc5)cc4)cc3)cc2)cc1
- T/C (dose: 12.5 mg/kg/injection, schedule: Q04DX003 (ip), vehicle: saline with Tween-80): 150 % of control
- T/C (dose: 19.0 mg/kg/injection, schedule: Q04DX003 (ip), vehicle: saline with Tween-80): 162 % of control and 186 % of control
- T/C [1]: 165 % of control and 180 % of control
- T/C (dose: 25.0 mg/kg/injection, schedule: Q04DX003 (ip), vehicle: saline with Tween-80): 163 % of control
- T/C (dose: 29.0 mg/kg/injection, schedule: Q04DX003 (ip), vehicle: saline with Tween-80): 272 % of control and 172 % of control
- T/C (dose: 44.0 mg/kg/injection, schedule: Q04DX003 (ip), vehicle: saline with Tween-80): 231 % of control and 195 % of control
- T/C [2]: 230 % of control
- T/C (dose: 66.0 mg/kg/injection, schedule: Q04DX003 (ip), vehicle: saline with Tween-80): 200 % of control
- T/C (dose: 67.0 mg/kg/injection, schedule: Q04DX003 (ip), vehicle: saline with Tween-80): 229 % of control and 195 % of control
- T/C [3]: 92 % of control
- T/C [4]: 250 % of control and 222 % of control

SMILES: COC(=O)CCCCCCCC(=O)OCC#CC#CCOC(=O)CCCCCCCC(=O)OC
- T/C (dose: 100.0 mg/kg/injection, schedule: Q04DX003 (ip), vehicle: Klucel (hydroxypropylcellulose) (HPC)): 109 % of control
- T/C (dose: 200.0 mg/kg/injection, schedule: Q04DX003 (ip), vehicle: Klucel (hydroxypropylcellulose) (HPC)): 104 % of control
- T/C (dose: 400.0 mg/kg/injection, schedule: Q04DX003 (ip), vehicle: Klucel (hydroxypropylcellulose) (HPC)): 104 % of control

SMILES: COc1cc(-c2ccc(N=Nc3c(O)ccc4ccccc34)c(OC)c2)ccc1N=Nc1ccc2c(S(=O)(=O)O)cc(S(=O)(=O)O)c(N)c2c1O
- T/C (dose: 50.0 mg/kg/injection, schedule: Q01DX009 (ip), vehicle: saline): 111 % of control
- T/C [5]: 104 % of control
- T/C [6]: 100 % of control
- T/C (dose: 200.0 mg/kg/injection, schedule: Q01DX009 (ip), vehicle: saline): 105 % of control
- T/C (dose: 200.0 mg/kg/injection, schedule: Q04DX003 (ip), vehicle: saline): 100 % of control

SMILES: CCc1cc2c(cc1C(=O)CBr)C(C)(C)CCC2(C)C
- T/C (dose: 3.12 mg/kg/injection, schedule: Q01DX009 (ip), vehicle: Klucel (hydroxypropylcellulose) (HPC)): 110 % of control
- T/C (dose: 3.8 mg/kg/injection, schedule: Q04DX003 (ip), vehicle: Klucel (hydroxypropylcellulose) (HPC)): 113 % of control
- T/C (dose: 5.7 mg/kg/injection, schedule: Q04DX003 (ip), vehicle: Klucel (hydroxypropylcellulose) (HPC)): 113 % of control
- T/C (dose: 6.25 mg/kg/injection, schedule: Q01DX009 (ip), vehicle: Klucel (hydroxypropylcellulose) (HPC)): 105 % of control
- T/C (dose: 12.5 mg/kg/injection, schedule: Q01DX009 (ip), vehicle: Klucel (hydroxypropylcellulose) (HPC)): 110 % of control
- T/C (dose: 23.0 mg/kg/injection, schedule: Q04DX003 (ip), vehicle: Klucel (hydroxypropylcellulose) (HPC)): 100 % of control
- T/C (dose: 52.5 mg/kg/injection, schedule: Q04DX003 (ip), vehicle: Klucel (hydroxypropylcellulose) (HPC)): 120 % of control

SMILES: CC(=O)SCCNCCNC1CC2CCC1C2 (stereo not drawn)
- T/C (dose: 5.75 mg/kg/injection, schedule: Q01DX009 (ip), vehicle: saline): 104 % of control
- T/C (dose: 11.5 mg/kg/injection, schedule: Q01DX009 (ip), vehicle: saline): 104 % of control

SMILES: C[CH2][Pb]([CH2]C)([CH2]C)[O][As](=O)(O)c1ccc(N)cc1
- T/C (dose: 1.5 mg/kg/injection, schedule: Q01DX009 (ip), vehicle: saline): 107 % of control
- T/C (dose: 2.0 mg/kg/injection, schedule: Q01DX009 (ip), vehicle: saline): 111 % of control
- T/C (dose: 3.0 mg/kg/injection, schedule: Q01DX009 (ip), vehicle: saline): 103 % of control
- T/C (dose: 4.5 mg/kg/injection, schedule: Q01DX009 (ip), vehicle: saline): 95 % of control

SMILES: Cc1ccc(C(=O)C2CC2)c(C)c1
- T/C [2]: 92 % of control
- T/C [3]: 103 % of control
- T/C [4]: 112 % of control
- T/C (dose: 200.0 mg/kg/injection, schedule: Q01DX009 (ip), vehicle: saline with Tween-80): 100 % of control
- T/C (dose: 200.0 mg/kg/injection, schedule: Q04DX003 (ip), vehicle: saline with Tween-80): 120 % of control
- T/C [7]: 108 % of control

SMILES: Cc1cc(O)c2c3c(ccc2c1)C(=O)c1c(O)cccc1C3=O
- T/C (dose: 0.5 mg/kg/injection, schedule: Q01DX009 (ip), vehicle: Klucel (hydroxypropylcellulose) (HPC)): 109 % of control
- T/C (dose: 1.0 mg/kg/injection, schedule: Q01DX009 (ip), vehicle: Klucel (hydroxypropylcellulose) (HPC)): 110 % of control
- T/C (dose: 2.0 mg/kg/injection, schedule: Q01DX009 (ip), vehicle: Klucel (hydroxypropylcellulose) (HPC)): 101 % of control
- T/C (dose: 4.0 mg/kg/injection, schedule: Q01DX009 (ip), vehicle: Klucel (hydroxypropylcellulose) (HPC)): 101 % of control

SMILES: C#CC1(OCC(O)CO)CCCCC1 (stereo not drawn)
- T/C (dose: 3.12 mg/kg/injection, schedule: Q01DX009 (ip), vehicle: water): 107 % of control
- T/C (dose: 6.25 mg/kg/injection, schedule: Q01DX009 (ip), vehicle: water): 110 % of control
- T/C (dose: 12.5 mg/kg/injection, schedule: Q01DX009 (ip), vehicle: water): 100 % of control
- T/C (dose: 25.0 mg/kg/injection, schedule: Q01DX009 (ip), vehicle: water): 110 % of control
- T/C (dose: 50.0 mg/kg/injection, schedule: Q01DX009 (ip), vehicle: water): 94 % of control
- T/C (dose: 100.0 mg/kg/injection, schedule: Q01DX009 (ip), vehicle: water): 103 % of control
- T/C (dose: 200.0 mg/kg/injection, schedule: Q01DX009 (ip), vehicle: water): 103 % of control
- T/C (dose: 400.0 mg/kg/injection, schedule: Q01DX009 (ip), vehicle: water): 118 % of control

SMILES: Nc1ncc(-c2ccc(CNc3ccc(C(=O)NC(CC(=O)O)CC(=O)O)cc3)cc2)c(N)n1
- T/C (dose: 2.0 mg/kg/injection, schedule: Q04DX003 (ip), vehicle: saline): 113 % of control
- T/C (dose: 5.0 mg/kg/injection, schedule: Q04DX003 (ip), vehicle: saline): 104 % of control
- T/C (dose: 10.0 mg/kg/injection, schedule: Q04DX003 (ip), vehicle: saline): 104 % of control
- T/C (dose: 20.0 mg/kg/injection, schedule: Q04DX003 (ip), vehicle: saline): 109 % of control
- T/C (dose: 30.0 mg/kg/injection, schedule: Q04DX003 (ip), vehicle: saline): 118 % of control
- T/C [8]: 157 % of control
- T/C [5]: 177 % of control
- T/C [4]: 242 % of control
- T/C [6]: 213 % of control

SMILES: COC(=O)Nc1cccc(NC(=O)C(=O)O)c1
- T/C [8]: 100 % of control
- T/C [4]: 100 % of control

SMILES: CC(C)CCOP(=S)(N1CC1)N1CC1
- T/C [7]: 177 % of control
